Reference: ChEMBL document CHEMBL4411277, “Structural Revision of Macropodumine A and Structure of 2-Deoxymacropodumine A, Daphniphyllum Alkaloids with 11-Membered Macrolactone Rings” (J Nat Prod, 2019)

System: HeLa
Assay: Cytotoxicity against human HeLa cells assessed as reduction in cell viability by MTT assay
Type: functional, cell-based

Q: With C[C@@H]1CN2C[C@H]3CCC(=O)OCC[C@H]4CC5=C(C4=O)[C@@]3(C)[C@H]2C[C@H]1C5=O as the molecule, how does the IC50 read?
A: 3.89 µM
